Experimental data reported in US20110040086A1, “Novel Beta-Lactam Antibiotics, Methods for Their Production, and Their Use” (DRITTE PATENTPORTFOLIO BETEILIGUNGSGESELLSCHAFT MB, priority 2007, published 2011).

Tests used:
[1] = system: S. epidermidis 847; assay: agar diffusion test (Test System II, multi-resistant germs); assay type: cell-based, Staphylococcus epidermidis; parameters: key: r = resistant (no detectable zone of inhibition)
Experimental: (§1) The test substances are deposited in stepped quantities (10 μg, 50 μg, 100 μg) onto active ingredient carriers (sensi-discs). For this purpose, the test substances are dissolved in methanol or A. dest. according to their solubility. Each inoculated plate is fitted with 3 test sheets.
(§2) Test System II (Effect Against Multi-Resistant Germs)
(§3) For this purpose, bacteria is cultivated on Müller-Hinton-Agar II plates.
(§4) With 1-1.5 ml physiological saline solution, a bacteria suspension of McFarland 0.5 (corresponds to a bacteria density of 150×10^6 germs) is produced. Then, with a sterile glass rod, a small drop of bacteria suspension is placed on the Müller-Hinton-Agar plate and coated in three layers (vertical, horizontal, and transverse). Thereafter, the sensi-discs with the novel semi-synthetic test substances are placed on top. The fitted plates are incubated for 18-20 hours at 37° C. After incubation, the diameters of the zones of inhibition are read as a measure for the antimicrobial activity of the novel semi-synthetic test substances.

[2] = system: S. aureus ATCC 6538; assay: as above; assay type: cell-based, Staphylococcus aureus
Experimental: as §1, §2, §3, §4

[3] = system: S. aureus 38418; assay: as above; assay type: cell-based, Staphylococcus aureus
Experimental: as §1, §2, §3, §4

[4] = system: S. epidermidis 125; assay: as above; assay type: cell-based, Staphylococcus epidermidis
Experimental: as §1, §2, §3, §4

[5] = system: Enterococcus faecalis 769; assay: as above; assay type: cell-based; parameters: key: r = resistant (no detectable zone of inhibition)
Experimental: as §1, §2, §3, §4

[6] = system: Staphylococcus aureus 315; assay: as above; assay type: cell-based; parameters: key: r = resistant (no detectable zone of inhibition)
Experimental: as §1, §2, §3, §4

[7] = system: S. aureus 520; assay: as above; assay type: cell-based, Staphylococcus aureus; parameters: key: r = resistant (no detectable zone of inhibition)
Experimental: as §1, §2, §3, §4

[8] = system: S. aureus North Germany strain; assay: as above; assay type: cell-based, Staphylococcus aureus; parameters: key: r = resistant (no detectable zone of inhibition)
Experimental: as §1, §2, §3, §4

[9] = system: S. aureus 36881; assay: as above; assay type: cell-based, Staphylococcus aureus; parameters: key: r = resistant (no detectable zone of inhibition)
Experimental: as §1, §2, §3, §4

[10] = system: Staphylococcus aureus ATCC 6538; assay: mouse infected with Staphylococcus aureus infection model (survival); assay type: in vivo, BALB/c mice; conditions: 2 × 1.0 mg (50 mg/kg) i.p.
Experimental: Method for Effectiveness In Vivo with the Mouse Infected with Staphylococcus aureus Model
On Day 0, at least 3 BALB/c mice per test substance (Table 8) or controls are pretreated with cyclophosphamide (250 mg/kg) in 250 μl PBS inta peritoneal (i.p.).
On Day 2, the animals again received 100 mg/kg i.p.
On Day 2, a colony of the test germ is transferred from a growing agar plate (Müller-Hinton-Agar, Beckton Dickinson) into a flask with 10 ml CASO broth (CASO-B., Soyabean peptone-Casein peptone broth, SIFIN, 30 g/l) and is cultivated overnight at 37° C. and a shaking frequency of 250 rpm.
On Day 3, the pre-culture (Vk) is diluted 1:50 with CASO-B and further cultivated ca. 2 hours until an extinction in the medium of 0.6 at a wavelength of 550 nm is reached. Then, it is grown 1× with PBS at room temperature and set again to an extinction of 0.6.
At least 3 animals for a test substance or controls are infected with 10 μl/g body weight grown germs of a bacteria suspension with the extinction 0.6 (ca. 10^10-10^12 CFU, Colony forming units) i.p.
After 30 minutes, antibiotic solution is injected into the mice in a volume of 200 μl PBS with 3% DMSO i.p. 6 hours later, the second antibiotic injection is performed at the same concentration. […]

[11] = logP value by HPLC according to Donovan et al.; conditions: HPLC with methanol/0.1% phosphoric acid gradient, pH 2
Experimental: • Operating temperature 18-24° C. • Flow 1.5 mL/min • Linear gradient (methanol/0.1% phosphoric acid pH 2) from 10% to 100% methanol in 9.4 min, equilibrium time between 2 runs 6 min
ca. 0.5 mg of analyte is added to 0.5 ml of a standard solution (440 mg methyl phenyl sulfonate and 380 μl toluene in 150 mL methanol). 2 μl of this sample solution is injected.
Because the distribution coefficients of the two standards running in each test are known, the distribution coefficient of the analytes can be determined from the relationships of the analyte/standard retention times.

**Q.** For CCOC(=O)C1=C(NC(C(=O)NC2C(=O)C3CC(Cl)=C(C(=O)O)NC32)c2ccccc2)C(=O)C=CC1=O (stereo not drawn) [1p, 3-chlorine-7-[2-(2-ethoxycarbonyl-3,6-dioxocyclohexa-1,4-dienylamino)-2-phenyl-acetylamino]-8-oxo-5-azabicyclo[4.2.0]oct-3-ene-4-carboxylic acid], which “Diameter of zone of inhibition” value ([1]; Quantity n [mol] 0.019) is on record?
**A.** r

**Q.** And the “Diameter of zone of inhibition” value ([1]; Quantity n [mol] 0.094)?
**A.** 16 mm

**Q.** What about the “Diameter of zone of inhibition” value ([1]; Quantity n [mol] 0.19) of the same compound?
**A.** 20 mm

**Q.** And the “Diameter of zone of inhibition” value ([2]; Quantity n 0.019)?
**A.** 22 mm

**Q.** What about the “Diameter of zone of inhibition” value ([2]; Quantity n 0.094) of the same compound?
**A.** 30 mm

**Q.** And the “Diameter of zone of inhibition” value ([2]; Quantity n 0.19)?
**A.** 32 mm

**Q.** What about the “Diameter of zone of inhibition” value ([3]; Quantity n [mol] 0.019) of the same compound?
**A.** 18 mm

**Q.** What about the “Diameter of zone of inhibition” value ([3]; Quantity n [mol] 0.094) of the same compound?
**A.** 28 mm

**Q.** What about the “Diameter of zone of inhibition” value ([3]; Quantity n [mol] 0.19) of the same compound?
**A.** >30 mm

**Q.** And the “Diameter of zone of inhibition” value ([4]; Quantity n 0.019)?
**A.** 16 mm

**Q.** What about the “Diameter of zone of inhibition” value ([4]; Quantity n 0.094) of the same compound?
**A.** 26 mm

**Q.** What about the “Diameter of zone of inhibition” value ([4]; Quantity n 0.19) of the same compound?
**A.** 28 mm

**Q.** And the “Diameter of zone of inhibition” value ([5]; Quantity n 0.019)?
**A.** r

**Q.** And the “Diameter of zone of inhibition” value ([5]; Quantity n 0.094)?
**A.** r

**Q.** What about the “Diameter of zone of inhibition” value ([5]; Quantity n 0.19) of the same compound?
**A.** r

**Q.** And the “Diameter of zone of inhibition” value ([6]; Quantity n 0.019)?
**A.** r

**Q.** And the “Diameter of zone of inhibition” value ([6]; Quantity n 0.094)?
**A.** r

**Q.** What about the “Diameter of zone of inhibition” value ([6]; Quantity n 0.19) of the same compound?
**A.** 10 mm

**Q.** And the “Diameter of zone of inhibition” value ([7]; Quantity n [mol] 0.019)?
**A.** r

**Q.** And the “Diameter of zone of inhibition” value ([7]; Quantity n [mol] 0.094)?
**A.** r

**Q.** What about the “Diameter of zone of inhibition” value ([7]; Quantity n [mol] 0.19) of the same compound?
**A.** 8 mm

**Q.** What about the “Diameter of zone of inhibition” value ([8]; Quantity n 0.019) of the same compound?
**A.** r

**Q.** What about the “Diameter of zone of inhibition” value ([8]; Quantity n 0.094) of the same compound?
**A.** r

**Q.** What about the “Diameter of zone of inhibition” value ([8]; Quantity n 0.19) of the same compound?
**A.** 12 mm

**Q.** And the “Diameter of zone of inhibition” value ([9]; Quantity n 0.019)?
**A.** r

**Q.** What about the “Diameter of zone of inhibition” value ([9]; Quantity n 0.094) of the same compound?
**A.** 12 mm

**Q.** And the “Diameter of zone of inhibition” value ([9]; Quantity n 0.19)?
**A.** 20 mm

**Q.** And the Survival/tested mice n/n [10]?
**A.** 2/3

**Q.** For O=C(NCCO)c1cc(O)ccc1O [2,5-dihydroxy-N-(2-hydroxyethyl)benzamide], which chromatographic logP [11] is on record?
**A.** -1.21

**Q.** For NC(=O)c1cc(O)ccc1O [2,5-dihydroxybenzamide], which chromatographic logP [11] is on record?
**A.** -0.4
